The record followed here is US20240216312A1, “PPAR-AGONISTS FOR USE IN THE TREATMENT OF LIVER FAILURE” (Genfit, priority 2021, published 2024).

Structures are written as SMILES. Like-named read-outs stand apart in the source and are kept apart here.

Test [1] has as its system LPS/GaIN acute liver failure, C57BL/6J mice. Put plainly: LPS/GalN model of acute liver failure in mice, hepatic gene expression, serum cytokines and albumin. The test is classed as in vivo, mouse. Particulars: mouse serum, 1 mg/kg/day oral 3 days before LPS/GaIN, 4 h after injection.
For another test, the system named is THP1 macrophages. Put plainly: LPS (Klebsiella pneumoniae) activation of THP1 macrophages, MCP1 and TNFα secretion (HTRF). The test is classed as cell-based, human. The note with it: 24 h, then LPS Klebsiella 6 h; for inhibition at 1 µM / inhibition at 10 µM: Homo sapiens; for inhibition at 1 µM: THP-1, 1 μM; for inhibition at 10 µM: THP-1, 10 μM. On the procedure: In order to test the efficacy of the compounds on macrophage activation and pro-inflammatory cytokine production, 2.5×10^4 THP-1 cells were cultured in a 384-well plate and treated with 100 ng/mL PMA (#P8139, Sigma) for 24 h to induce differentiation into macrophages.
Then, medium was removed and FBS-deprived medium containing 1 or 10 μM compound was added for 24 h. Finally, THP1 macrophages were stimulated for 6 h with 100 ng/mL LPS (Klebsiella pneumoniae, #L4268, Sigma-Aldrich).
Monocyte chemoattractant protein 1 (MCP1) and Tumor necrosis α (TNFα) were measured in cell supernatants by Homogeneous Time Resolved Fluorescence (HTRF, #62[…] for TNFα, and 62HCCL2PEG for MCP1, Cisbio). Fluorescence was measured with Infinite 500 (#30019337, Tecan) to determine the concentration of cytokines.
In order to evaluate the effect of the compounds according to the invention on LPS-induced cytokines production by macrophages, the percentage of inhibition over the vehicle condition were calculated for each compound at 1 and 10 μM.

In another test the test system is HepG2 cells. Put plainly: Staurosporin-induced apoptosis in HepG2 cells, caspase 3/7 activity. The note with it: 16 h pre-treatment, then 10 μM staurosporin 4 h; for % Inhibition of caspase activity over mean Veh.: 0.3 μM; for inhibition at 0.3 µM: Homo sapiens, HepG2, 0.3 μM, read-out: % Inhibition of caspase activity over mean Veh. The test is classed as cell-based, human. The method, then: In order to evaluate the effect of the compounds on human hepatocytes that undergo a cellular stress induced by staurosporin, the human hepatoblastoma-derived HepG2 cell line (ECACC, #85011430, Sigma-Aldrich) was cultured in high-glucose DMEM medium (#41965, Gibco, France) supplemented with 10% of fetal bovine serum (FBS, #10270, Gibco), 1% penicillin/streptomycin (#15140, Gibco), 1% sodium pyruvate (#11360, Gibco) and 1% MEM non-essential amino acids (#11140, Gibco) in a 5% CO2 incubator at 37° C.
To evaluate caspase 3/7 activity, which is a surrogate marker of apoptosis, 1.5×10^4 cells were plated in a 384-well plate (#781080, Greiner, France). After cell adherence (8 hours), cells were serum starved for 16 h in the presence of 0.3 μM of compounds or vehicle. Cpd.1 was also used at 3 and 10 μM. Thereafter, cells were treated with 10 μM staurosporin (#569397, Sigma-Aldrich, Germany) supplemented with compound for additional 4 hours before cell lysis and caspase activity measurement.
Caspase 3/7 activity was measured using Caspase Glow™ 3/7 assay (#G8093, Promega, USA). Luminescence was measured using a Spark microplate reader (#30086376, Tecan, USA). The amount of luminescence (RLU) directly correlates with caspase 3/7 activity.

For test [2], the system named is LPS-induced endotoxemia, Sprague Dawley rats. Put plainly: LPS-induced endotoxemia in rats, hepatic markers and serum TNFα. The test is classed as in vivo. The note with it: rat, 100 mg/kg/day oral 3 days before LPS, 3 h after LPS.
[3] abbreviates: read-out: % inhibition of MCP1 secretion over mean Veh.
[4] abbreviates: read-out: % inhibition of TNFα secretion over mean Veh.

Regarding `CC[C@@H](Oc1cccc(CN(CCCOc2ccc(OC)cc2)c2nc3ccccc3o2)c1)C(=O)O` [Cpd. 18, pemafibrate, reference compound], in test [1], the “decrease of circulating IL10 level compared to vehicle” value is 52% and the serum albumin level entry is “restore albumin concentration”.

Regarding `COC(CCc1cc(C)c(OC(C)(C)C(=O)O)c(C)c1)c1ccc(C(F)(F)F)cc1` (stereo not drawn) [Cpd. 13, 2-(4-(3-methoxy-3-(4-(trifluoromethyl)phenyl)propyl)-2,6-dimethylphenoxy)-2-methylpropanoic acid], in the test with THP1 macrophages (10 μM, 10 µM), the “% inhibition of MCP1 secretion over mean Veh.” value (“% inhibition of MCP1 secretion” below) was 111% and the “% inhibition of TNFα secretion over mean Veh.” value is reported as 18%. Moreover, the inhibition at 1 µM in the test with THP1 macrophages (setting [3]) was determined as 99%. In the test with THP1 macrophages (setting [4]), the inhibition at 1 µM amounted to 0% and the inhibition at 10 µM lay in the range of 11 to 58%. The “% Inhibition of caspase activity over mean Veh.” value in the test with HepG2 cells is recorded as 79%.

`COC(CCc1cc(C)c(OC(C)(C)C(=O)O)c(C)c1)c1ccc(SC)cc1` (stereo not drawn) [Cpd. 4, 2-[2,6-dimethyl-4-[3-[4-(methylthio)phenyl]-3-methoxypropyl]phenoxy]-2-methylpropanoic acid]: the “% inhibition of MCP1 secretion” value in the test with THP1 macrophages (10 μM, 10 µM) was 110%. In addition, the inhibition at 1 µM in the test with THP1 macrophages (setting [3]) is 100%. In addition, in the test on HepG2 cells, the “% Inhibition of caspase activity over mean Veh.” value was found to be 32% and the inhibition at 0.3 µM was in the range of 26 to 79%.

For the molecule `O=C(O)CCCc1cc2cc(Cl)ccc2n1S(=O)(=O)c1ccc2ncsc2c1` [Cpd. 23, lanifibranor, reference compound], the inhibition at 1 µM with THP1 macrophages (setting [3]) was 100%; in the test with THP1 macrophages (setting [4]), 15%.

`Cc1cc(CCC(=O)c2ccc(C(F)(F)F)cc2)cc(C)c1OC(C)(C)C(=O)O` [Cpd. 3, 2-[2,6-dimethyl-4-[3-[4-(trifluoromethyl)phenyl]-3-oxo-propyl]phenoxy]-2-methylpropanoic acid]: the inhibition at 1 µM in the test on THP1 macrophages (setting [3]) was 90%. For the same molecule, in the test on THP1 macrophages (setting [4]), the inhibition at 1 µM stood at 0% and the inhibition at 10 µM is 11 to 58%.

With `Cc1cc(CCC(=O)c2ccc(OC(F)(F)F)cc2)cc(C)c1OC(C)(C)C(=O)O` [Cpd. 2, 2-[2,6-dimethyl-4-[3-[4-(trifluoromethyloxy)phenyl]-3-oxo-propyl]phenoxy]-2-methylpropanoic acid], the inhibition at 1 µM in the test on THP1 macrophages (setting [3]) is 96%.

In the case of `CCc1ccc(CCOc2ccc(CC3SC(=O)NC3=O)cc2)nc1` (stereo not drawn) [Cpd. 21, pioglitazone, reference compound], in the test on THP1 macrophages (setting [3]), the inhibition at 1 µM was determined as 80%. In the test with THP1 macrophages (setting [4]), the inhibition at 1 µM was 0% and the inhibition at 10 µM lay in the range of 11 to 58%.

As for `CC(C)(Oc1ccc(CCNC(=O)c2ccc(Cl)cc2)cc1)C(=O)O` [Cpd. 17, bezafibrate, reference compound], in the test with THP1 macrophages (setting [3]), the inhibition at 1 µM turned out to be 22% and the inhibition at 10 µM was 54 to 132%.

In the case of `COC(CCc1cc(C)c(OC(C)(C)C(=O)O)c(C)c1)c1ccc(Br)cc1` (stereo not drawn) [Cpd. 14, 2-[2,6-dimethyl-4-[3-[4-bromophenyl]-3-methoxypropyl]phenoxy]-2-methylpropanoic acid], the results for the inhibition at 1 µM in the test on THP1 macrophages (setting [3]) and in the test with THP1 macrophages (setting [4]) were 91% and 18%, respectively.

With `CCO[C@H](COc1ccc(C(F)(F)F)cc1)CSc1ccc(OCC(=O)O)c(C)c1.NCCCC[C@H](N)C(=O)O.O.O` [Cpd. 20, seladelpar lysine, reference compound], the “% inhibition of MCP1 secretion” value with THP1 macrophages (1 μM) came to 105%.

On to `CON=C(CCc1cc(C)c(OC(C)(C)C(=O)O)c(C)c1)c1ccc(OC(F)(F)F)cc1` [Cpd. 7, 2-(4-(3-(methoxyimino)-3-(4-(trifluoromethoxy)phenyl)propyl)-2,6-dimethylphenoxy)-2-methylpropanoic acid], for which the inhibition at 1 µM in the test on THP1 macrophages (setting [3]) was 95%; in the test with THP1 macrophages (setting [4]), 25%.

Consider `CCOC(CCc1ccc(OC(C)(C)C(=O)O)c(Cl)c1Cl)c1sc(-c2ccc(C(F)(F)F)cc2)nc1C` (stereo not drawn) [Cpd. 9, 2-(2,3-dichloro-4-(3-ethoxy-3-(4-methyl-2-(4-(trifluoromethyl)-phenyl)thiazol-5-yl)propyl)phenoxy)-2-methylpropanoic acid], for which the inhibition at 1 µM with THP1 macrophages (setting [3]) was 86%; in the test on THP1 macrophages (setting [4]), 3%.

Take `CC(C)OC(=O)C(C)(C)Oc1ccc(C(=O)c2ccc(Cl)cc2)cc1` [Cpd. 19, fenofibrate]: in test [2], the “reduction of LPS-induced serum TNFα level” value came out at 85% and the “restoration of serum albumin concentration compared to vehicle” value is on record as 79%.

In the case of `CSc1ccc(C(CCc2cc(C)c(OC(C)(C)C(=O)O)c(C)c2)OC(C)C)cc1` (stereo not drawn) [Cpd. 5, 2-[2,6-dimethyl-4-[3-[4-(methylthio)phenyl]-3-isopropyloxypropyl]phenoxy]-2-methylpropanoic acid], in the test with THP1 macrophages (setting [3]), the inhibition at 1 µM came to 93%.

In the case of `Cc1cc(CCC(O)c2ccc(OC(F)(F)F)cc2)cc(C)c1OC(C)(C)C(=O)O` (stereo not drawn) [Cpd. 6, 2-(4-(3-hydroxy-3-(4-(trifluoromethoxy)phenyl)propyl)-2,6-dimethylphenoxy)-2-methylpropanoic acid], in the test with THP1 macrophages (setting [3]), the inhibition at 1 µM is 94%. Moreover, the inhibition at 0.3 µM with HepG2 cells fell in the range of 26 to 79%.

`CN(CCOc1ccc(CC2SC(=O)NC2=O)cc1)c1ccccn1` (stereo not drawn) [Cpd. 22, rosiglitazone, reference compound]: the “% inhibition of MCP1 secretion” value in the test on THP1 macrophages (1 μM) came out at 79%; with THP1 macrophages (10 μM, 10 µM), 117%. Also, the “% inhibition of TNFα secretion over mean Veh.” value with THP1 macrophages (1 μM) stood at 36%; with THP1 macrophages (10 μM, 10 µM) it was 11%.

Broadly, the inhibition is the relative decrease from the control value, in per cent.
